Source: PMC5995184, “Potent anti-leukemic activity of a specific cyclin-dependent kinase 9 inhibitor in mouse models of chronic lymphocytic leukemia” (Oncotarget, 2018)

Key:
[1] = tested on: TCL1 CLL cells (CD5+CD19+), T and B lymphocytes; experiment: TCL1 transgenic CLL mice, oral LDC526, longitudinal blood and final spleen analysis; type: in vivo, mouse
Excerpt: Another widely used preclinical CLL model are TCL1 transgenic mice. The TCL1 transgenics represent a constitutive CLL model not involving the adoptive transfer of cells. This model mirrors the natural course of human IgVH-unmutated CLL including its disease progression. In addition, this model has also been widely used by others to test novel therapeutic molecules. […] Consecutive blood sampling allowed us to carry out a longitudinal study in individual TCL1 and control mice. For this, we chose a cohort of TCL1 and littermate control mice, which were 9-12 months old (Figure 5A). We chose TCL1 transgenics with high peripheral CLL cell (CD19+CD5+) counts (14.6±7.4/nl, mean±SEM). Given the presumably high leukemic burden in these aged TCL1 mice and the reduced general condition of some NSG mice receiving 75 mg/kg for 5 days we decided to dose TCL1 mice with 50 mg/kg daily for two consecutive days (Figure 5A). As the experiment was longitudinally designed and there was no effect expected of administering carrier to wild-type control mice we omitted this control group and established three experimental groups (Figure 5A). In order to minimize stress by collecting blood specimens we sampled blood three times, 8 days apart (days -5, +3 and +11; Figure 5A). Compared to blood smears prepared before commencing LDC526 treatment a marked decrease of peripheral blood leukocytes and CLL cells was observed two days post the last LDC526 administration to TCL1 transgenic mice (Figure 5B). In contrast to the carrier control treated TCL1 mice, white blood cell counts (WBC) dropped in LDC526-treated wild-type and TCL1 mice (Figure 5C). In comparison to wild-type control mice, where WBC dropped to 34% of baseline values, the WBC decrease in TCL1 mice was more dramatic dropping to 8% of baseline values (Figure 5D).
All mice were bred and housed at the University Hospital Essen animal care facility. TCL1 mice were back-crossed more than 6 generations into the C57BL/6 background and were genotyped as previously described. Age-matched TCL1 wild-type littermates served as controls. Peripheral blood counts were determined with the VetABC analyzer (scil, Viernheim, Germany). Blood smears were Wright-Giemsa stained. For the human CLL xenograft experiments eight to 14-week-old NOD.Cg-Prkdc^scid Il2rg^tm1Wjl/SzJ (NOD/scid/γc^null; NSG) mice were sublethally irradiated (3.25 Gy) 24 hours before transplantation. Freshly isolated 1.0 x 10^8 PBMC suspended in 0.2 ml of RPMI were intravenously transplanted as previously described. For oral administration, LDC526 was diluted in polyethelene glycol (PEG Mn 400, Sigma-Aldrich) and administerd by gavage. Animal experiments were performed in accordance with institutional guidelines approved by the Animal Care Committee of the University Hospital Essen.
LDC526 [(3-((4-(4-fluoro-2-methoxyphenyl)-1,3,5-triazin-2-yl)amino)phenyl)methane-sulfonamide, molecular weight 389,41 g/mol, Figure 1A] was provided as powder (LDC526 synthesis, supplementary methods). For oral gavage administration LDC526 was diluted in polyethelene glycol (PEG Mn 400, Sigma-Aldrich, Munich, Germany) followed by sonication for 3 x 5 minutes with intermediate mixing.
Apoptosis and cell death were determined by using Annexin V (BD Biosciences, Heidelberg, Germany) and 4′,6-Diamidin-2-phenylindol (DAPI, Sigma-Aldrich) staining. Erythrocytes of murine peripheral blood samples were lysed with NH4Cl hypotonic solution. Single cell suspensions of murine spleens were prepared as previously described. Murine cells were stained with antibodies directed against murine CD3 (clone 145-2C11), CD5 (53-7.3) and CD19 (1D3), respectively. For the detection of human cells in NSG spleens antibodies against human CD3 (clone SK7), CD4 (SK3), CD5 (L17F12), CD8 (SK1), CD19 (J3-119 or SJ25C1) and CD45 (2D1) were used (purchased from BD Bioscience, Biolegend and Beckman Coulter). […]

[2] = molecular target: T1, CDK9-Cyclin T1 (Homo sapiens, UniProt P50750); experiment: FRET-based LANCE Ultra in vitro enzymatic kinase assay, CDK9; type: biochemical; conditions: CDK9 versus other CDKs
T1 construct: purchased Invitrogen
T1 sequence (P50750 whole entry): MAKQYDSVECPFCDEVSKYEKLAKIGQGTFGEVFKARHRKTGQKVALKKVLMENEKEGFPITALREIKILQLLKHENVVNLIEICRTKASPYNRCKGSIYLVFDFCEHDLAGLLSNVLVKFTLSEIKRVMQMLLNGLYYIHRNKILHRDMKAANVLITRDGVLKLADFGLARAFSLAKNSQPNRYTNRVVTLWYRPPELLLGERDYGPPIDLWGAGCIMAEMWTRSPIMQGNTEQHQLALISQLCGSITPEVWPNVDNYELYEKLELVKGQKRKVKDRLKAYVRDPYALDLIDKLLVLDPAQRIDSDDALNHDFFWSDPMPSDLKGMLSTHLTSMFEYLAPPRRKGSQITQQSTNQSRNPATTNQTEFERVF
T1 sequence (O60563 whole entry partner): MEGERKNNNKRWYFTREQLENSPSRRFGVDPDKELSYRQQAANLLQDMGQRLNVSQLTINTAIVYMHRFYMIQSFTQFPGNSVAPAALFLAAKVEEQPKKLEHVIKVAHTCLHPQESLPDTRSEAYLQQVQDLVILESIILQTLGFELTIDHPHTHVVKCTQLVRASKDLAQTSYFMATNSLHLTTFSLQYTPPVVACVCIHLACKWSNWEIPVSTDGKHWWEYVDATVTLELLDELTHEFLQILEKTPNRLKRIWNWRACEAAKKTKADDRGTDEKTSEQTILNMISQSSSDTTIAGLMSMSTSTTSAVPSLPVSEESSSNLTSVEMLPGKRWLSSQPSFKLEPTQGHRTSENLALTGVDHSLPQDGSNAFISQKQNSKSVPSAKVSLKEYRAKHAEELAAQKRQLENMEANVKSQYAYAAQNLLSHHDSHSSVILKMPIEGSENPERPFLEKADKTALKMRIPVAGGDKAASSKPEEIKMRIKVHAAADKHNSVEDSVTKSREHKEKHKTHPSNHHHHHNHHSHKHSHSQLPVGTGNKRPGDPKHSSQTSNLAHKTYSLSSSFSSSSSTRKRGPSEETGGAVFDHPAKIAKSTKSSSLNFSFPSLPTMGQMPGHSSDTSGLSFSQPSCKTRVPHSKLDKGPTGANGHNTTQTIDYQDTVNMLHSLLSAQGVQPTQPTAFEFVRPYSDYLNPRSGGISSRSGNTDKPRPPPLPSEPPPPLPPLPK
Description: IC50 values for CDK inhibitors were determined using the fluorescence resonance energy transfer (FRET)-based LANCE Ultra KinaSelect Ser/Thr kit (Perkin Elmer). Kinase activity and inhibition were measured according to the manufacturer’s instructions and as previously described. […] FRET signals were recorded in a time-resolved manner in a Perkin Elmer EnVision reader. Purified cyclin-kinase pairs were obtained from the following suppliers: Carna Biosciences (CDK1-Cyclin B1, CDK6-Cyclin D3, CDK7-Cyclin H-MAT1), ProQinase (CDK2-Cyclin A) and Invitrogen (CDK9-Cyclin T1).
Data were analyzed with GraphPad Prism 7 software. Differences were assessed by unpaired or paired Student t tests if not indicated otherwise. Two-sided probabilities of less than 0.05 were considered significant. Nonlinear regression sigmoidal dose-response curve fit was used to determine the IC50 values and to generate graphs.

## COc1cc(F)ccc1-c1ncnc(Nc2cccc(CS(N)(=O)=O)c2)n1 [LDC526, (3-((4-(4-fluoro-2-methoxyphenyl)-1,3,5-triazin-2-yl)amino)phenyl)methane-sulfonamide]
[1]; 50 mg/kg for two days
  decrease of peripheral blood CLL counts of individual TCL1 mice: at least 8 fold
[1]; 50 mg/kg for two days, day +3
  decrease of TCL1 blood T cells: 6 fold
  decrease of mean TCL1 blood CLL numbers compared to baseline: 16 fold
[1]; LDC526-treated mice, longitudinal
  hemoglobin counts: did not change significantly
[1]; TCL1 mice
  increase of peripheral blood CLL numbers on day +11 compared to day +3: 29%
[1]; TCL1 mice after LDC526 treatment
  mean platelet concentrations, percent of baseline levels: ≥ 50%
[1]; TCL1 mice, 50 mg/kg daily for two days, day +3
  WBC, percent of baseline values: 8%
[1]; TCL1 mice, 50 mg/kg for two days
  drop of mean WBC: 12 fold
[1]; TCL1 mice, peripheral blood
  non-malignant B cell numbers, percent of baseline values: 1.4%
[1]; day +3
  peripheral blood TCL1 CLL cells, percent of baseline levels: 6.4%
[1]; day +11
  splenic weights versus carrier control TCL1 mice: significantly lower
[2]
  selectivity against other CDKs: at least 50 fold
